Experiments:
JAK3 = JAK3 (Homo sapiens (Human), UniProt P52333); experiment: JAK3 Kinase Assay (Caliper / Filter protocols); format: biochemical; conditions: JAK3 kinase inhibition; ATP 8 μM; read-out: LLE_JAK3_FB (IC50)
Method: JAK3 Kinase Assay Protocol (Caliper)
The assay reactions were performed in U-bottom 384-well plates. […] The reaction was initiated by the combination of GST-JAK3 enzyme with substrates and test compounds. The reactions were incubated at room temperature for 3 hours and terminated by adding 60 μl of 35 mM EDTA to each sample. […] Compounds were dissolved at 10 mM in dimethylsulfoxide (DMSO) and evaluated at eleven concentrations. IC50 values were derived by non-linear regression analysis.
JAK3 Kinase Assay Protocol (Filter)
Kinase reactions consisted of 5 ng of JAK3 enzyme, 30 uM CSKtide substrate, 0.2 μCi ^33P γ-ATP, 8 μM ATP in 30 μl kinase buffer (50 mM Hepes, pH 8.0, 10 mM MgCl2, 1 mM EGTA, 2 mM DTT). Reactions were incubated for 30 minutes at room temperature and stopped by the addition of cold trichloroacetic acid (TCA) to a final concentration of 15%. TCA precipitates were collected onto 384 well phosphocellulose filters (Millipore) using a Platemate to transfer the reaction mixture, washed on an EMBLA plate washer and the filters were quantitated using a TopCount 384-well liquid scintillation counter. […] Compounds were dissolved at 10 mM in dimethylsulfoxide (DMSO) and evaluated at six concentrations, each in triplicate. The final concentration of DMSO in the assay equaled 2%. IC50 values were derived by non-linear regression analysis.

JAK1 = JAK1 (Homo sapiens (Human), UniProt P23458); experiment: JAK1 Kinase Assay Protocol; format: biochemical; conditions: GST-JAK1; ATP 100 μM; Caliper LabChip; read-out: LLE_JAK1 (IC50)
Chain of JAK1 (P23458 whole entry): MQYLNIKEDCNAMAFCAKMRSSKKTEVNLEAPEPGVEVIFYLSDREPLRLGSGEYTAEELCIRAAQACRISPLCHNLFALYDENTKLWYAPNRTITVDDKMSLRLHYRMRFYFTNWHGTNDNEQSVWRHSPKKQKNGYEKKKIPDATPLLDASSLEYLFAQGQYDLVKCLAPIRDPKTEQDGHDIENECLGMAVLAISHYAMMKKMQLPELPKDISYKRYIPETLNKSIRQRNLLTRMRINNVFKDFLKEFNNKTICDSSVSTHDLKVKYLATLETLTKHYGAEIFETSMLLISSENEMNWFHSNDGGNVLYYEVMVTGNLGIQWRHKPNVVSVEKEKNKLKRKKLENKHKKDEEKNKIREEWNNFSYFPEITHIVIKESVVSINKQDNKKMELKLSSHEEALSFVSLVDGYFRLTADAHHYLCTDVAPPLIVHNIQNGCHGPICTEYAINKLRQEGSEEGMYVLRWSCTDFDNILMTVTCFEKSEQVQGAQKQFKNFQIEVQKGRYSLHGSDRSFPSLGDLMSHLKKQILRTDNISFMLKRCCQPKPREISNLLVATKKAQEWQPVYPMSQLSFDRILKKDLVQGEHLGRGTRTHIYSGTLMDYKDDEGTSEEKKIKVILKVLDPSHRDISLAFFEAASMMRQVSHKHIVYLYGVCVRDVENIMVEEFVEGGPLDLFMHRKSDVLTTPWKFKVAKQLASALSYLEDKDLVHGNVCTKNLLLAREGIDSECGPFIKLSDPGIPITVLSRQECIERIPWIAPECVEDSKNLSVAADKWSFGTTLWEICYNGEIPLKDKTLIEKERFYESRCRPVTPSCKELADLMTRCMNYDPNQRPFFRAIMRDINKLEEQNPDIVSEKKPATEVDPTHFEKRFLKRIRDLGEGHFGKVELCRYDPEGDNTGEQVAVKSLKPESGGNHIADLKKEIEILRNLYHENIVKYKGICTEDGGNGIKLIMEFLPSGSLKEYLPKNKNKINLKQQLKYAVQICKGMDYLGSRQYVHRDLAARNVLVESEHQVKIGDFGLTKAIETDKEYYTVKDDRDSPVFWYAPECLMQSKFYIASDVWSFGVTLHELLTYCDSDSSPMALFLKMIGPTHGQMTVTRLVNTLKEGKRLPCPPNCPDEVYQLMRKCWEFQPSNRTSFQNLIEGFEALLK
Method: JAK1 Kinase Assay Protocol
The assay reactions were performed in U-bottom 384-well plates. The final assay volume was 30 μl prepared from 15 μl additions of enzyme and substrates (fluoresceinated peptide and ATP) and test compounds in assay buffer (20 mM HEPES pH 7.4, 10 mM MgCl2, 25 mM beta-glycerol phosphate, 0.015% Brij35 and 4 mM DTT). The reaction was initiated by the combination of GST-JAK1 enzyme with substrates and test compounds. The reactions were incubated at room temperature for 3 hours and terminated by adding 60 μl of 35 mM EDTA to each sample. […] The final concentration of reagents in the assays was: ATP, 100 μM; fluoresceinated peptide, 1.5 μM; GST-JAK1, 12.5 nM; and DMSO, 1.6%. […] Compounds were dissolved at 10 mM in dimethylsulfoxide (DMSO) and evaluated at eleven concentrations. IC50 values were derived by non-linear regression analysis.

Chain of JAK3 (P52333 whole entry): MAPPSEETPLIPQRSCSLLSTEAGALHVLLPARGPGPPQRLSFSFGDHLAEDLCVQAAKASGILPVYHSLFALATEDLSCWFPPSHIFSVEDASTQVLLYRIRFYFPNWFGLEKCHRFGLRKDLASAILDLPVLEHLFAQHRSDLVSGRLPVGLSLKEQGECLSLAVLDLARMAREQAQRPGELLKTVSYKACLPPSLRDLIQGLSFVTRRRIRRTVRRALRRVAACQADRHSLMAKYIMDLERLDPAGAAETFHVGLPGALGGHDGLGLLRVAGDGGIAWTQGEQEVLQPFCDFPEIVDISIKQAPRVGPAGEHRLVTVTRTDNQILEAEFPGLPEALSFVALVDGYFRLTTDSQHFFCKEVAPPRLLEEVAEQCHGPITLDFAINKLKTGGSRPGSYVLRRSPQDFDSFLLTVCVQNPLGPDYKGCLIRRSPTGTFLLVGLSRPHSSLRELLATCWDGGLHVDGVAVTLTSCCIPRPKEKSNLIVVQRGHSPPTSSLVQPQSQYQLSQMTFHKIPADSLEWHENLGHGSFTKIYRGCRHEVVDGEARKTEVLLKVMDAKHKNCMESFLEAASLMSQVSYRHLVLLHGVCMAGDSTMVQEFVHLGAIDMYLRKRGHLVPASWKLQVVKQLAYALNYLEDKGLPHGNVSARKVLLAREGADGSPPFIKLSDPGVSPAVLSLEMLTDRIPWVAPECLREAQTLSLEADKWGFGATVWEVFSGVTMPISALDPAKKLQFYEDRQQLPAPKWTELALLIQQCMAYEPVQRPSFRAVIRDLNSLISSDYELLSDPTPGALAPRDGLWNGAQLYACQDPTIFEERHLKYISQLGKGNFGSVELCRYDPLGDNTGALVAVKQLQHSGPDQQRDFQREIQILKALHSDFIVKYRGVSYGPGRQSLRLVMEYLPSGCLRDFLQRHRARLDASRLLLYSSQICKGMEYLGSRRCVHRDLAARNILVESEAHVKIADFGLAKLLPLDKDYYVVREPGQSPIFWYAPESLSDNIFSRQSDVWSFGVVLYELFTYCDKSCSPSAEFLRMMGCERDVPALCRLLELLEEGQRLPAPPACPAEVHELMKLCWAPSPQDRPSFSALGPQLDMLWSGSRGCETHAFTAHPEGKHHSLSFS

Compound | IC50 (JAK3) [nM] | IC50 (JAK1) [nM]
CC1(C)[C@H](Nc2c(C(N)=O)cnn3cc(NS(=O)(=O)c4ccccc4)cc23)CC[C@@]1(C)O (racemic) [Example 22] | 22.1 | 239
CN(C)C(=O)c1ccc(-c2cc3c(N[C@@H]4CC[C@](C)(N)C4(C)C)c(C(N)=O)cnn3c2)cc1 [Example 266, 4-(((1R,3S)-3-amino-2,2,3-trimethylcyclopentyl)amino)-6-(4-(dimethylcarbamoyl)phenyl)pyrrolo[1,2-b]pyridazine-3-carboxamide] | 0.8 | 0.6
Cn1nccc1-c1cc2c(N[C@@H]3C[C@@H](O)[C@@H](O)C3(C)C)c(C(N)=O)cnn2c1 (racemic) [Example 142] | 5.6 | 10.9
Cn1nccc1-c1cc2c(N[C@@H]3CC[C@](C)(O)C3(C)C)c(C(N)=O)cnn2c1 (racemic) [Example 148] | 25.2 | 46.4
CC1(C)[C@H](Nc2c(C(N)=O)cnn3cc(NS(C)(=O)=O)cc23)CC[C@@]1(C)O (racemic) [Example 3] | 6 | 45.8
CC1(C)[C@@H](Nc2c(C(N)=O)cnn3cc(-c4ccc(C#N)cc4)cc23)CC[C@@]1(C)N [Example 112] | 9.4 | 12.7
CC1(C#N)CCCC1Nc1c(C(N)=O)cnn2cc(-c3ccccc3)cc12 (stereo not drawn) [Example 123] | 0.2 | 1
CCS(=O)(=O)Nc1cc2c(N[C@@H]3CC[C@@](C)(O)C3(C)C)c(C(N)=O)cnn2c1 (racemic) [Example 25] | 8.1 | 83.9
CC(=O)Nc1cc2c(N[C@@H]3CC[C@@](C)(O)C3(C)C)c(C(N)=O)cnn2c1 (racemic) [Example 7] | 0.9 | 8.2

Continued, values first:

IC50 (JAK3) [nM] | IC50 (JAK1) [nM] | Compound
0.3 | 0.7 | CC1(C)[C@H](Nc2c(C(N)=O)cnn3cc(-c4ccc(CO)cc4)cc23)CC[C@]1(C)N [Example 271, 4-(((1R,3S)-3-amino-2,2,3-trimethylcyclopentyl)amino)-6-(4-(hydroxymethyl)phenyl) pyrrolo[1,2-b]pyridazine-3-carboxamide]
1.7 | 4.3 | COc1ccc(-c2cc3c(N[C@@H]4CC[C@](C)(NS(C)(=O)=O)C4(C)C)c(C(N)=O)cnn3c2)cn1 [Example 336, 6-(6-methoxy-3-pyridinyl)-4-(((1R,3S)-2,2,3-trimethyl-3-((methylsulfonyl)amino)cyclopentyl)amino)pyrrolo[1,2-b]pyridazine-3-carboxamide]
0.3 | 1.2 | COc1ccc(-c2cc3c(N[C@@H]4CC[C@](C)(C(N)=O)C4(C)C)c(C(N)=O)cnn3c2)cn1 [Example 338, 4-((1R,3S)-3-carbamoyl-2,2,3-trimethylcyclopentylamino)-6-(6-methoxypyridin-3-yl)pyrrolo[1,2-b]pyridazine-3-carboxamide]
8.4 | 25.1 | COc1ncc(-c2cc3c(N[C@@H]4CC[C@](C)(N)C4(C)C)c(C(N)=O)cnn3c2)cn1 [Example 278, 4-(((1R,3S)-3-amino-2,2,3-trimethylcyclopentyl)amino)-6-(2-methoxy-5-pyrimidinyl)pyrrolo[1,2-b]pyridazine-3-carboxamide]
11 | 37.3 | C[C@]1(O)CC[C@@H](Nc2c(C(N)=O)cnn3cc(-c4cncnc4N)cc23)CC1 [Example 316, 6-(4-amino-5-pyrimidinyl)-4-((cis-4-hydroxy-4-methylcyclohexyl)amino)pyrrolo[1,2-b]pyridazine-3-carboxamide]
1.7 | 20.2 | CC1(C)[C@H](Nc2c(C(N)=O)cnn3cc(N4CCCC4=O)cc23)CC[C@]1(C)N [Example 328]
15 | 35.2 | CC1(C)[C@H](Nc2c(C(N)=O)cnn3cc(-c4cncc(C(=O)O)c4)cc23)CC[C@]1(C)N [Example 276, 5-(4-(((1R,3S)-3-amino-2,2,3-trimethylcyclopentyl)amino)-3-carbamoylpyrrolo[1,2-b]pyridazin-6-yl)nicotinic acid]
7.1 | 13.4 | C[C@]1(F)CCC[C@H]1Nc1c(C(N)=O)cnn2cc(N3CCOCC3=O)cc12 (racemic) [Example 318]
0.5 | 2.9 | CC1(C)CCC[C@H]1Nc1c(C(N)=O)cnn2cc(-c3ccccc3)cc12 [Example 304, 4-(((1R)-2,2-dimethylcyclopentyl)amino)-6-phenylpyrrolo[1,2-b] pyridazine-3-carboxamide]
8.8 | 75.7 | CC1(C)[C@H](Nc2c(C(N)=O)cnn3cc(N4CCC4=O)cc23)CC[C@]1(C)N [Example 332]
0.2 | 0.1 | CC1(C)[C@H](Nc2c(C(N)=O)cnn3cc(-c4ccccc4)cc23)CC[C@@]1(C)O [Example 293, 4-(((1R,3R)-3-hydroxy-2,2,3-trimethylcyclopentyl)amino)-6-phenylpyrrolo[1,2-b]pyridazine-3-carboxamide]
1.9 | 2.2 | CC1(C)[C@H](Nc2c(C(N)=O)cnn3cc(-c4ccc(F)nc4)cc23)CC[C@]1(C)C(N)=O [Example 339, 4-(((1R,3S)-3-carbamoyl-2,2,3-trimethylcyclopentyl)amino)-6-(6-fluoropyridin-3-yl)pyrrolo[1,2-b]pyridazine-3-carboxamide]

From US8921368B2, “Pyrrolopyridazine JAK3 inhibitors and their use for the treatment of inflammatory and autoimmune diseases” (Bristol-Myers Squibb Company, priority 2011, dated 2014)
